Experiments:
Type in all cases: in vivo
[1] = tested on: crabgrass, large (large crabgrass, Digitaria sanguinalis); test: Test A pre-/postemergence: crabgrass, large
Procedure, shortened: (§1)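 Each species received preemergence soil-directed spraying and, at the same time, postemergence treatment of seedlings 2–10 cm tall. Formulation: non-phytotoxic solvent mixture including surfactant. Response assessed visually about ten days on, relative to untreated controls, 0–100 scale.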

[2] = tested on: velvetleaf (Abutilon theophrasti); test: Test A pre-/postemergence: velvetleaf
Procedure, shortened: as §1

[3] = tested on: pigweed (Amaranthus retroflexus); test: Test A pre-/postemergence: pigweed
Procedure, shortened: as §1

[4] = tested on: foxtail, giant (giant foxtail, Setaria faberii); test: Test A pre-/postemergence: foxtail, giant
Procedure, shortened: as §1

[5] = tested on: barnyardgrass (Echinochloa crus-galli); test: Test A pre-/postemergence: barnyardgrass
Procedure, shortened: as §1

[6] = tested on: sedge, umbrella (small-flower umbrella sedge Cyperus difformis); test: Test B flooded paddy: sedge, umbrella; details: Flood, applied to paddy water at 2-leaf stage, visually evaluated after 13 to 15 days
Protocol: (§2) Seeds selected from rice (Oryza sativa), sedge, umbrella (small-flower umbrella sedge Cyperus difformis), ducksalad (Heteranthera limosa), and barnyardgrass (Echinochloa crus-galli) were grown to the 2-leaf stage for testing. At time of treatment, test pots were flooded to 3 cm above the soil surface, treated by application of test compounds directly to the paddy water, and then maintained at that water depth for the duration of the test.
(§3) Treated plants and controls were maintained in a greenhouse for 13 to 15 days, after which time all species were compared to controls and visually evaluated. Plant response ratings, summarized in Table B, are based on a scale of 0 to 100 where 0 is no effect and 100 is complete control. A dash (-) response means no test result.

[7] = tested on: barnyardgrass (Echinochloa crus-galli); test: Test B flooded paddy: barnyardgrass; details: Flood, applied to paddy water at 2-leaf stage, visually evaluated after 13 to 15 days
Protocol: as §2, §3

corn (Zea mays) = test: Test A pre-/postemergence: corn
Procedure, shortened: as §1

[8] = tested on: ducksalad (Heteranthera limosa); test: Test B flooded paddy: ducksalad; details: Flood, applied to paddy water at 2-leaf stage, visually evaluated after 13 to 15 days
Protocol: as §2, §3

[9] = tested on: wheat (Triticum aestivum); test: Test A pre-/postemergence: wheat
Procedure, shortened: as §1

rice (Oryza sativa) [10] = test: Test B flooded paddy: rice; details: Flood, applied to paddy water at 2-leaf stage, visually evaluated after 13 to 15 days
Protocol: as §2, §3

[11] = tested on: morningglory (Ipomoea spp.); test: Test A pre-/postemergence: morningglory
Procedure, shortened: as §1

[12] = tested on: barnyardgrass (Echinochloa crus-galli); test: Test C flooded paddy test: barnyardgrass; details: scale 0 to 100 (0 no effect, 100 complete control)
Procedure, shortened: (§4)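 Plants at 2-leaf stage in pots flooded 3 cm above soil; compounds applied directly into the paddy water, depth maintained. Visual rating against controls after 13–15 days in greenhouse, scale 0 (no effect) to 100 (complete control).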

rice (Oryza sativa) [13] = test: Test C flooded paddy test: rice; details: scale 0 to 100 (0 no effect, 100 complete control)
Procedure, shortened: as §4

[14] = tested on: sedge, umbrella (small-flower umbrella sedge, Cyperus difformis); test: Test C flooded paddy test: sedge, umbrella; details: scale 0 to 100 (0 no effect, 100 complete control)
Procedure, shortened: as §4

[15] = tested on: ducksalad (Heteranthera limosa); test: Test C flooded paddy test: ducksalad; details: scale 0 to 100 (0 no effect, 100 complete control)
Procedure, shortened: as §4

[16] = Postemergence, 125 g ai/ha, 0 to 100 scale, 0 is no effect, 100 is complete control
[17] = Postemergence, 500 g ai/ha, 0 to 100 scale, 0 is no effect, 100 is complete control
[18] = Preemergence, 125 g ai/ha, 0 to 100 scale where 0 is no effect and 100 is complete control
[19] = Preemergence, 500 g ai/ha, 0 to 100 scale (0 no effect, 100 complete control)
[20] = Postemergence, 31 g ai/ha, visual rating on 0 to 100 scale (0 no effect, 100 complete control), approximately ten days
[21] = Preemergence, 31 g ai/ha, 0 to 100 scale, 0 is no effect, 100 is complete control
[22] = Preemergence, 125 g ai/ha, 0 to 100 scale (0 no effect, 100 complete control)
[23] = Flood (flooded paddy test), 62 g ai/ha, visual rating after 13 to 15 days
[24] = Flood (flooded paddy test), 250 g ai/ha, visual rating after 13 to 15 days
[25] = Postemergence, 500 g ai/ha, visual rating on 0 to 100 scale (0 no effect, 100 complete control), approximately ten days
[26] = Preemergence, 500 g ai/ha, 0 to 100 scale, 0 is no effect, 100 is complete control
[27] = Flood (flooded paddy test), 125 g ai/ha, visual rating after 13 to 15 days

Compound: CC(C)Cc1nn(-c2ccc(C(F)(F)F)cc2)nc1Oc1ccnc(C(F)F)c1 [Compound 187]
- Plant response rating, Crabgrass, Large [1, 16]: 0
- Crabgrass, Large plant response rating [1, 17]: 0
- Plant response rating, Crabgrass, Large [1, 18]: 0
- Plant response rating, Crabgrass, Large [1, 19]: 0
- Plant response rating, Velvetleaf [2, 16]: 0
- Velvetleaf plant response rating [2, 17]: 0
- Plant response rating, Velvetleaf [2, 18]: 0
- Plant response rating, Velvetleaf [2, 19]: 0
- Plant response rating, Pigweed [3, 16]: 0
- Pigweed plant response rating [3, 17]: 0
- Plant response rating, Pigweed [3, 18]: 0
- Plant response rating, Pigweed [3, 19]: 0
- Plant response rating, Foxtail, Giant [4, 16]: 0
- Foxtail, Giant plant response rating [4, 17]: 0
- Plant response rating, Foxtail, Giant [4, 18]: 0
- Plant response rating, Foxtail, Giant [4, 19]: 0
- Plant response rating, Barnyardgrass [5, 16]: 0
- Barnyardgrass plant response rating [5, 17]: 0
- Plant response rating, Barnyardgrass [5, 18]: 0
- Plant response rating, Barnyardgrass [5, 19]: 0
- Plant response rating, Sedge, Umbrella (0 to 100 scale, 0 is no effect, 100 is complete control) ([6]; 125 g ai/ha): 0
- Plant response rating, Barnyardgrass (0 to 100 scale, 0 is no effect, 100 is complete control) ([7]; 125 g ai/ha): 0
- Plant response rating, Corn (corn (Zea mays); [16]): 0
- Corn plant response rating (corn (Zea mays); [17]): 0
- Plant response rating, Corn (corn (Zea mays); [18]): 0
- Plant response rating, Corn (corn (Zea mays); [19]): 0
- Plant response rating, Ducksalad (0 to 100 scale, 0 is no effect, 100 is complete control) ([8]; 125 g ai/ha): 0
- Plant response rating, Wheat [9, 16]: 0
- Wheat plant response rating [9, 17]: 0
- Plant response rating, Wheat [9, 18]: 0
- Plant response rating, Wheat [9, 19]: 0
- Plant response rating, Rice (0 to 100 scale, 0 is no effect, 100 is complete control) (rice (Oryza sativa) [10]; 125 g ai/ha): 0
- Plant response rating, Morningglory [11, 16]: 0
- Morningglory plant response rating [11, 17]: 0
- Plant response rating, Morningglory [11, 18]: 0
- Plant response rating, Morningglory [11, 19]: 0

Compound: COc1nn(-c2ccc(F)cc2)nc1Oc1ccnc(C(F)(F)F)c1 [Compound 34]
- Crabgrass, Large plant response rating [1, 20]: 10
- Crabgrass, Large plant response rating [1, 16]: 20
- Plant response rating, Crabgrass, Large [1, 21]: 0
- Plant response rating, Crabgrass, Large [1, 22]: 50
- Velvetleaf plant response rating [2, 20]: 0
- Velvetleaf plant response rating [2, 16]: 10
- Plant response rating, Velvetleaf [2, 21]: 0
- Plant response rating, Velvetleaf [2, 22]: 0
- Pigweed plant response rating [3, 20]: 20
- Pigweed plant response rating [3, 16]: 80
- Plant response rating, Pigweed [3, 21]: 0
- Plant response rating, Pigweed [3, 22]: 10
- Foxtail, Giant plant response rating [4, 20]: 10
- Foxtail, Giant plant response rating [4, 16]: 20
- Plant response rating, Foxtail, Giant [4, 21]: 0
- Plant response rating, Foxtail, Giant [4, 22]: 30
- Barnyardgrass plant response rating [5, 20]: 0
- Barnyardgrass plant response rating [5, 16]: 10
- Plant response rating, Barnyardgrass [5, 21]: 0
- Plant response rating, Barnyardgrass [5, 22]: 0
- Plant response rating, Sedge, Umbrella (0 to 100 scale, 0 is no effect, 100 is complete control) ([6]; 250 g ai/ha): 90
- Plant response rating, Barnyardgrass (0 to 100 scale, 0 is no effect, 100 is complete control) ([7]; 250 g ai/ha): 65
- Corn plant response rating (corn (Zea mays); [20]): 10
- Corn plant response rating (corn (Zea mays); [16]): 10
- Plant response rating, Corn (corn (Zea mays); [21]): 0
- Plant response rating, Corn (corn (Zea mays); [22]): 0
- Plant response rating, Ducksalad (0 to 100 scale, 0 is no effect, 100 is complete control) ([8]; 250 g ai/ha): 75
- Wheat plant response rating [9, 20]: 0
- Wheat plant response rating [9, 16]: 0
- Plant response rating, Wheat [9, 21]: 0
- Plant response rating, Wheat [9, 22]: 0
- Plant response rating, Rice (0 to 100 scale, 0 is no effect, 100 is complete control) (rice (Oryza sativa) [10]; 250 g ai/ha): 35
- Morningglory plant response rating [11, 20]: 20
- Morningglory plant response rating [11, 16]: 30
- Plant response rating, Morningglory [11, 21]: 0
- Plant response rating, Morningglory [11, 22]: 0

Compound: Cc1nn(-c2cnc(Cl)cn2)nc1C(=O)c1cccc(C(F)(F)F)c1 [Compound 50]
- Plant response rating, Barnyardgrass [12, 23]: 0
- Plant response rating, Barnyardgrass [12, 24]: 0
- Crabgrass, Large plant response rating [1, 16]: 0
- Crabgrass, Large plant response rating [1, 25]: 10
- Plant response rating, Crabgrass, Large [1, 22]: 10
- Plant response rating, Crabgrass, Large [1, 26]: 20
- Velvetleaf plant response rating [2, 16]: 0
- Velvetleaf plant response rating [2, 25]: 10
- Plant response rating, Velvetleaf [2, 22]: 0
- Plant response rating, Velvetleaf [2, 26]: 0
- Pigweed plant response rating [3, 16]: 10
- Pigweed plant response rating [3, 25]: 20
- Plant response rating, Pigweed [3, 22]: 0
- Plant response rating, Pigweed [3, 26]: 10
- Foxtail, Giant plant response rating [4, 16]: 0
- Foxtail, Giant plant response rating [4, 25]: 10
- Plant response rating, Foxtail, Giant [4, 22]: 10
- Plant response rating, Foxtail, Giant [4, 26]: 40
- Barnyardgrass plant response rating [5, 16]: 0
- Barnyardgrass plant response rating [5, 25]: 10
- Plant response rating, Barnyardgrass [5, 22]: 0
- Plant response rating, Barnyardgrass [5, 26]: 0
- Plant response rating, Rice (rice (Oryza sativa) [13]; [23]): 0
- Plant response rating, Rice (rice (Oryza sativa) [13]; [24]): 0
- Plant response rating, Sedge, Umbrella [14, 23]: 0
- Plant response rating, Sedge, Umbrella [14, 24]: 0
- Corn plant response rating (corn (Zea mays); [16]): 0
- Corn plant response rating (corn (Zea mays); [25]): 10
- Plant response rating, Corn (corn (Zea mays); [22]): 0
- Plant response rating, Corn (corn (Zea mays); [26]): 0
- Wheat plant response rating [9, 16]: 0
- Wheat plant response rating [9, 25]: 0
- Plant response rating, Wheat [9, 22]: 0
- Plant response rating, Wheat [9, 26]: 0
- Plant response rating, Ducksalad [15, 23]: 0
- Plant response rating, Ducksalad [15, 24]: 0
- Morningglory plant response rating [11, 16]: 0
- Morningglory plant response rating [11, 25]: 10
- Plant response rating, Morningglory [11, 22]: 0
- Plant response rating, Morningglory [11, 26]: 0

Compound: Cc1nn(-c2ccc([N+](=O)[O-])cc2)nc1C(=O)c1cccc(C(F)(F)F)c1 [Compound 41]
- Plant response rating, Barnyardgrass [12, 23]: 0
- Plant response rating, Barnyardgrass [12, 27]: 0
- Plant response rating, Barnyardgrass [12, 24]: 0
- Plant response rating, Barnyardgrass ([12]; Flood, 31 g ai/ha): 0
- Crabgrass, Large plant response rating [1, 16]: 10
- Crabgrass, Large plant response rating [1, 25]: 30
- Plant response rating, Crabgrass, Large [1, 22]: 20
- Plant response rating, Crabgrass, Large [1, 26]: 70
- Velvetleaf plant response rating [2, 16]: 10
- Velvetleaf plant response rating [2, 25]: 50
- Plant response rating, Velvetleaf [2, 22]: 10
- Plant response rating, Velvetleaf [2, 26]: 10
- Pigweed plant response rating [3, 16]: 30
- Pigweed plant response rating [3, 25]: 80
- Plant response rating, Pigweed [3, 22]: 20
- Plant response rating, Pigweed [3, 26]: 50
- Foxtail, Giant plant response rating [4, 16]: 10
- Foxtail, Giant plant response rating [4, 25]: 20
- Plant response rating, Foxtail, Giant [4, 22]: 40
- Plant response rating, Foxtail, Giant [4, 26]: 70
- Barnyardgrass plant response rating [5, 16]: 10
- Barnyardgrass plant response rating [5, 25]: 10
- Plant response rating, Barnyardgrass [5, 22]: 10
- Plant response rating, Barnyardgrass [5, 26]: 20
- Plant response rating, Rice (rice (Oryza sativa) [13]; [23]): 0
- Plant response rating, Rice (rice (Oryza sativa) [13]; [27]): 0
- Plant response rating, Rice (rice (Oryza sativa) [13]; [24]): 0
- Plant response rating, Rice (rice (Oryza sativa) [13]; Flood, 31 g ai/ha): 0
- Plant response rating, Sedge, Umbrella [14, 23]: 0
- Plant response rating, Sedge, Umbrella [14, 27]: 0
- Plant response rating, Sedge, Umbrella [14, 24]: 0
- Plant response rating, Sedge, Umbrella ([14]; Flood, 31 g ai/ha): 0
- Corn plant response rating (corn (Zea mays); [16]): 10
- Corn plant response rating (corn (Zea mays); [25]): 20
- Plant response rating, Corn (corn (Zea mays); [22]): 0
- Plant response rating, Corn (corn (Zea mays); [26]): 0
- Wheat plant response rating [9, 16]: 0
- Wheat plant response rating [9, 25]: 10
- Plant response rating, Wheat [9, 22]: 0
- Plant response rating, Wheat [9, 26]: 0
- Plant response rating, Ducksalad [15, 23]: 0
- Plant response rating, Ducksalad [15, 27]: 0
- Plant response rating, Ducksalad [15, 24]: 0
- Plant response rating, Ducksalad ([15]; Flood, 31 g ai/ha): 0
- Morningglory plant response rating [11, 16]: 10
- Morningglory plant response rating [11, 25]: 10
- Plant response rating, Morningglory [11, 22]: 0
- Plant response rating, Morningglory [11, 26]: 10

Source: patent US9302999B2, “Substituted triazoles as herbicides” (E. I. DU PONT DE NEMOURS AND COMPANY, priority 2012, dated 2016)
